Results from US8853234B2, “Quinolone analogs and methods related thereto” (Senhwa Biosciences, Inc., priority 2007, dated 2014).

Columns and labels:
rDNA = assay: Quantitative PCR (QPCR) assay, rRNA inhibition (rDNA); format: cell-based; design: Selectivity: reference not given here; conditions: for Selectivity: not defined in the patent; for IC50: rRNA inhibition from quantitative PCR assay
Text: In a specific assay embodiment, provided herein is a method for identifying a molecule that modulates ribosomal RNA (rRNA) synthesis, which comprises: contacting cells with a test molecule of Formula (I), (II), (III), (IV), (V), (VI), (VI′), (VII), or (VIII), contacting a ribosomal nucleotide sequence with one or more primers that amplify a portion thereof and a labeled probe that hybridizes to the amplification product, and detecting the amount of the amplification product by hybridization of the labeled probe, whereby a test molecule that reduces or increases the amount of amplification product is identified as a molecule that modulates rRNA synthesis. The labeled probe in some embodiments is added after the primers are added and the rRNA is amplified, and in certain embodiments, the labeled probe and the primers are added at the same time. The portion of ribosomal nucleotide sequence amplified sometimes is at the 5′ end of rDNA.
Real-time quantitative PCR (QPCR) method may be used to detect the changes of the target c-myc and the endogenous reference GAPDH gene copies in the same tube. Generally, cells (15,000 cells/well) are seeded on 96 well flat bottom plates (Corning, N.Y.) and incubated under normal growth conditions for overnight. The next day, the culture medium is exchanged for that containing anticancer drugs at various concentrations and incubated for 4 hrs in a humidified atmosphere of 5% CO2 at 37° C. Total RNA (tRNA) is extracted using the RNeasy 96 Kit (QIAGEN, CA). The concentration of the tRNA is determined by the RiboGreen RNA Quantitation Reagent (Molecular Probes, OR).
A reverse-transcription (RT) reaction may be conducted using 50 ng of tRNA from each well in a 25 μl reaction containing 1× TaqMan RT buffer, 2.5 uM random hexamers, 5.5 mM MgCl2, 0.5 mM each deoxynucleoside triphosphate (dNTP), 30 U MultiScribe Reverse Transcriptase, and 10 U RNase inhibitor. RT reactions are incubated for 10 min at 25° C., reverse-transcribed for 30 min at 48° C., inactivated for 5 min at 95° C., and placed at 4° C. All RT reagents may be purchased from Applied Biosystems, CA.
Real-Time QPCR reaction may be performed in a 50 μl reaction containing the 5 μl of cDNA, 1× Universal PCR Master Mix, 1× c-myc Pre-Developed Primers and Probe set, and 0.8×GAPDH Pre-Developed Primers and Probe set. Because of the relative abundance of GAPDH gene in Hela, GAPDH primers and probe concentration may be adjusted to get accurate threshold cycles (CT) for both genes in the same tube. The threshold cycle (CT) indicates the fractional cycle number at which the amount of amplified target reaches a fixed threshold. By doing so, the GAPDH amplification is stopped before it can limit the common reactants available for amplification of the c-myc. The ΔRn value represents the normalized reporter signal minus the baseline signal. ΔRn increases during PCR as amplicon copy number increases until the reaction approaches a plateau.
The c-myc probe is labeled with 6FAM™ dye-MGB and the GAPDH probe is labeled with VIC™ dye-MTB. Preincubation is performed for 2 min at 50° C. to activate AmpErase UNG enzyme and then for 10 min at 95° C. to activate AmpliTaq DNA Polymerase. DNA is amplified for 40 cycles of 15 sec at 95° C. and 1 min at 60° C. Human c-myc and GAPDH cDNA are amplified, detected, and quantitated in real time using the ABI Prism 7000 Sequence Detection system (Applied Biosystems, CA), which is set to detect both 6-FAM and VIC reporter dyes simultaneously.
The data may be analyzed using the ABI PRISM Sequence Detection System and Microsoft Excel. Relative quantitation is done using the standard curve and comparative CT method at the same time, and both methods gave equivalent results. The cycle at which the amplification plot crosses the CT is known to accurately reflect relative mRNA values. (See, Heid, et al., Genome Res. (1996) 6:986-994; Gibson, et al., Genome Res. (1996) 6:995-1001). […]

[1] = test system: HCT-116 human colorectal carcinoma cells; assay: Alamar Blue (AB) cell proliferation assay, HCT-116; format: cell-based; conditions: 96 h, Alamar Blue cell proliferation inhibition, HCT-116, four days
Description: A representative cell-proliferation assay protocol using Alamar Blue dye (stored at 4° C., use 20 ul per well) is described hereafter.
96-Well Plate Setup and Compound Treatment
a. Split and trypsinize cells.
b. Count cells using hemocytometer.
c. Plate 4,000-5,000 cells per well in 100 μl of medium and seed into a 96-well plate according to the following plate layout. Add cell culture medium only to wells B10 to B12. Wells B1 to B9 have cells but no compound added.
d. Add 100 μl of 2× drug dilution to each well in a concentration shown in the plate layout above. At the same time, add 100 μl of media into the control wells (wells B10 to B12). Total volume is 200 μl/well.
e. Incubate four (4) days at 37° C., 5% CO2 in a humidified incubator.
f. Add 20 μl Alamar Blue reagent to each well.
g. Incubate for four (4) hours at 37° C., 5% CO2 in a humidified incubator.
h. Record fluorescence at an excitation wavelength of 544 nm and emission wavelength of 590 nm using a microplate reader.
In the assays, cells are cultured with a test compound for approximately four days, the dye then is added to the cells and fluorescence of […] dye is detected after approximately four hours. Different types of cells can be utilized in the assays (e.g., HCT-116 human colorectal carcinoma cells, PC-3 human prostatic cancer cells and MiaPaca human pancreatic carcinoma cells). Anti-proliferative effects of representative compounds are provided hereafter.
Representative cassette dosing and bioavailability data are given in Table 8, along with cell proliferation inhibition (from Alamar Blue (AB) assay (e.g., Example 45 herein) and rRNA inhibition (from quantitative PCR (QPCR) assay (e.g., Example 46 herein).

CN1CCCC1CCNC(=O)c1c(=O)c2cc(F)c(N3CCOCC3)nc2n2c3ccccc3n(C)c12 (stereo not drawn)
Selectivity (rDNA): 8
IC50 (rDNA): 521 nM
IC50 [1]: 210 nM

O=C(NCCNC1CCC1)c1c(=O)c2ccc(N3CCOCC3)nc2n2c1sc1ccccc12
Selectivity (rDNA): 16
IC50 (rDNA): 176 nM
IC50 [1]: 286 nM

CN1CCN(c2ccc3c(=O)c(C(=O)NC4CC4)c4n(C)c5ccccc5n4c3n2)CC1
Selectivity (rDNA): 4
IC50 (rDNA): 127 nM
IC50 [1]: 202 nM

O=C(NCCNC1CC1)c1c(=O)c2ccc(N3CCOCC3)nc2n2c1sc1ccccc12 [drawing 604]
Selectivity (rDNA): 39
IC50 (rDNA): 100 nM
IC50 [1]: 65 nM

Cc1cnc(CNC(=O)c2c(=O)c3ccc(N4CCN(C)CC4)nc3n3c2sc2ccccc23)cn1 [drawing 619]
Selectivity (rDNA): 13
IC50 (rDNA): 69 nM
IC50 [1]: 391 nM
